In the supplement of paper PMC10307832:

Legend:
Experiment in all cases: relative viability (nuclei count vs DMSO), 5 days (fraction); higher = more cells survive
NCI-H1793 = system: NCI-H1793
Procedure, shortened: (§1)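 Values are medians from duplicate plates. Each reflects relative viability, defined as the nuclei count of treated wells over that of vehicle wells. Lung cancer cell lines in 1536-well plates were pin-tool dosed one day after seeding with one drug alone or with a fixed anchor-drug dose plus five library-drug doses (not always all listed) in √10 steps, then fixed, stained and imaged at 4× after 5 days.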

NCI-H1395 = system: NCI-H1395
Procedure, shortened: as §1

NCI-H2085 = system: NCI-H2085
Procedure, shortened: as §1

H3255 = system: H3255
Procedure, shortened: as §1

SK-MES-1 = system: SK-MES-1
Procedure, shortened: as §1

ChaGo-K-1 = system: ChaGo-K-1
Procedure, shortened: as §1

NCI-H520 = system: NCI-H520
Procedure, shortened: as §1

COR-L23 = system: COR-L23
Procedure, shortened: as §1

HCC-827 = system: HCC-827
Procedure, shortened: as §1

NCI-H2405 = system: NCI-H2405
Procedure, shortened: as §1

HCC-44 = system: HCC-44
Procedure, shortened: as §1

NCI-H838 = system: NCI-H838
Procedure, shortened: as §1

EMC-BAC-2 = system: EMC-BAC-2
Procedure, shortened: as §1

NCI-H1651 = system: NCI-H1651
Procedure, shortened: as §1

LU99A = system: LU99A
Procedure, shortened: as §1

NCI-H2023 = system: NCI-H2023
Procedure, shortened: as §1

NCI-H1944 = system: NCI-H1944
Procedure, shortened: as §1

EPLC-272H = system: EPLC-272H
Procedure, shortened: as §1

NCI-H2087 = system: NCI-H2087
Procedure, shortened: as §1

SMILES: COc1cc2nccc(Oc3ccc(NC(=O)Nc4cc(C)on4)c(Cl)c3)c2cc1OC [Tivozanib] + CC1(C)CCC(c2ccc(Cl)cc2)=C(CN2CCN(c3ccc(C(=O)NS(=O)(=O)c4ccc(N[C@H](CCN5CCOCC5)CSc5ccccc5)c(S(=O)(=O)C(F)(F)F)c4)cc3)CC2)C1 [Navitoclax] (partner 0.5 µM)
- relative viability (NCI-H1793; first compound 0.005 µM): 0.351
- relative viability (NCI-H1793; first compound 0.01581 µM): 0.466
- relative viability (NCI-H1793; first compound 0.05 µM): 0.413
- relative viability (NCI-H1793; first compound 0.5 µM): 0.438
- relative viability (NCI-H1395; first compound 0.005 µM): 1.14
- relative viability (NCI-H1395; first compound 0.01581 µM): 1.08
- relative viability (NCI-H1395; first compound 0.05 µM): 1.08
- relative viability (NCI-H1395; first compound 0.1581 µM): 1.24
- relative viability (NCI-H1395; first compound 0.5 µM): 0.945
- relative viability (NCI-H2085; first compound 0.005 µM): 1.07
- relative viability (NCI-H2085; first compound 0.01581 µM): 1.1
- relative viability (NCI-H2085; first compound 0.05 µM): 1.17
- relative viability (NCI-H2085; first compound 0.1581 µM): 1.04
- relative viability (NCI-H2085; first compound 0.5 µM): 1.14
- relative viability (H3255; first compound 0.005 µM): 0.446
- relative viability (H3255; first compound 0.01581 µM): 0.482
- relative viability (H3255; first compound 0.05 µM): 0.495
- relative viability (H3255; first compound 0.1581 µM): 0.328
- relative viability (H3255; first compound 0.5 µM): 0.516
- relative viability (SK-MES-1; first compound 0.005 µM): 1.25
- relative viability (SK-MES-1; first compound 0.01581 µM): 1.16
- relative viability (SK-MES-1; first compound 0.05 µM): 1.4
- relative viability (SK-MES-1; first compound 0.1581 µM): 1.17
- relative viability (SK-MES-1; first compound 0.5 µM): 1.18
- relative viability (ChaGo-K-1; first compound 0.005 µM): 0.846
- relative viability (ChaGo-K-1; first compound 0.01581 µM): 1.03
- relative viability (ChaGo-K-1; first compound 0.05 µM): 0.802
- relative viability (ChaGo-K-1; first compound 0.1581 µM): 0.645
- relative viability (ChaGo-K-1; first compound 0.5 µM): 0.799
- relative viability (NCI-H520; first compound 0.005 µM): 1.09
- relative viability (NCI-H520; first compound 0.01581 µM): 0.962
- relative viability (NCI-H520; first compound 0.05 µM): 0.969
- relative viability (NCI-H520; first compound 0.1581 µM): 0.782
- relative viability (NCI-H520; first compound 0.5 µM): 0.887
- relative viability (COR-L23; first compound 0.005 µM): 0.955
- relative viability (COR-L23; first compound 0.01581 µM): 0.998
- relative viability (COR-L23; first compound 0.05 µM): 1.04
- relative viability (COR-L23; first compound 0.1581 µM): 0.935
- relative viability (COR-L23; first compound 0.5 µM): 0.817
- relative viability (HCC-827; first compound 0.005 µM): 1.01
- relative viability (HCC-827; first compound 0.01581 µM): 1.03
- relative viability (HCC-827; first compound 0.05 µM): 1.02
- relative viability (HCC-827; first compound 0.1581 µM): 1.05
- relative viability (HCC-827; first compound 0.5 µM): 1.03
- relative viability (NCI-H2405; first compound 0.005 µM): 0.861
- relative viability (NCI-H2405; first compound 0.01581 µM): 1.09
- relative viability (NCI-H2405; first compound 0.05 µM): 0.74
- relative viability (NCI-H2405; first compound 0.1581 µM): 1.02
- relative viability (NCI-H2405; first compound 0.5 µM): 0.498
- relative viability (HCC-44; first compound 0.005 µM): 1.01
- relative viability (HCC-44; first compound 0.01581 µM): 0.986
- relative viability (HCC-44; first compound 0.05 µM): 1.01
- relative viability (HCC-44; first compound 0.1581 µM): 0.962
- relative viability (HCC-44; first compound 0.5 µM): 0.944
- relative viability (NCI-H838; first compound 0.005 µM): 1.09
- relative viability (NCI-H838; first compound 0.01581 µM): 1.16
- relative viability (NCI-H838; first compound 0.05 µM): 1.2
- relative viability (NCI-H838; first compound 0.5 µM): 1.12
- relative viability (EMC-BAC-2; first compound 0.005 µM): 1.27
- relative viability (EMC-BAC-2; first compound 0.01581 µM): 1.11
- relative viability (EMC-BAC-2; first compound 0.05 µM): 1.21
- relative viability (EMC-BAC-2; first compound 0.1581 µM): 1.14
- relative viability (EMC-BAC-2; first compound 0.5 µM): 1.24
- relative viability (NCI-H1651; first compound 0.005 µM): 0.979
- relative viability (NCI-H1651; first compound 0.01581 µM): 0.934
- relative viability (NCI-H1651; first compound 0.05 µM): 1.09
- relative viability (NCI-H1651; first compound 0.1581 µM): 0.983
- relative viability (NCI-H1651; first compound 0.5 µM): 1.15
- relative viability (LU99A; first compound 0.005 µM): 0.795
- relative viability (LU99A; first compound 0.01581 µM): 0.749
- relative viability (LU99A; first compound 0.05 µM): 0.849
- relative viability (LU99A; first compound 0.5 µM): 0.794
- relative viability (NCI-H2023; first compound 0.005 µM): 0.909
- relative viability (NCI-H2023; first compound 0.01581 µM): 1.02
- relative viability (NCI-H2023; first compound 0.05 µM): 1.04
- relative viability (NCI-H2023; first compound 0.1581 µM): 0.962
- relative viability (NCI-H2023; first compound 0.5 µM): 0.954
- relative viability (NCI-H1944; first compound 0.005 µM): 1.08
- relative viability (NCI-H1944; first compound 0.01581 µM): 1.02
- relative viability (NCI-H1944; first compound 0.05 µM): 1.05
- relative viability (NCI-H1944; first compound 0.1581 µM): 0.891
- relative viability (NCI-H1944; first compound 0.5 µM): 1.1
- relative viability (EPLC-272H; first compound 0.005 µM): 0.916
- relative viability (EPLC-272H; first compound 0.01581 µM): 1.25
- relative viability (EPLC-272H; first compound 0.05 µM): 1.34
- relative viability (EPLC-272H; first compound 0.1581 µM): 0.967
- relative viability (EPLC-272H; first compound 0.5 µM): 0.911
- relative viability (NCI-H2087; first compound 0.005 µM): 0.906
- relative viability (NCI-H2087; first compound 0.01581 µM): 1.07
- relative viability (NCI-H2087; first compound 0.05 µM): 1.06
- relative viability (NCI-H2087; first compound 0.1581 µM): 0.917
- relative viability (NCI-H2087; first compound 0.5 µM): 0.906
